From ChEMBL document CHEMBL1201862, “PubChem BioAssay data set” (2004) come the findings set out here.

Each structure is given as a SMILES string.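 Tested at 5 concentrations; 48 h exposure; 96-well plates; endpoints linearly interpolated, else capped at highest concentration. GI50: concentration for 50% inhibition of growth.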 The source made the active and inactive calls. No stated cut-off is given here; in the data, active = GI50 up to about 1.1 µM and inactive = higher. A value given as a limit tells only on which side of the number the result lay.

Some test systems named below: MDA-N; BT-549; HCT-116; M14; COLO 205; Hs-578T; MDA-MB-231; MOLT-4; SR; SF-295; CCRF-CEM; NCI-H226; RPMI-8226; SF-268; HCC 2998; A498.
Experiment in all cases: NCI anticancer screen, dose series, 48 h

On to `NS(=O)(=O)c1ccc(NNc2c3ccccc3nc3c(C(=O)Nc4ccc(S(=O)(=O)Nc5ncccn5)cc4)cccc23)cc1`, for which the GI50 in the assay with MDA-N, in the assay on BT-549, in the assay on HCT-116, with M14, in the assay with COLO 205 and with Hs-578T was > 25 µM (inactive) throughout. Also, the GI50 in the assay with MDA-MB-231, with MOLT-4, in the assay with SR, with SF-295, with CCRF-CEM and with NCI-H226 was > 25 µM (inactive) each time. Also, the GI50 with RPMI-8226, in the assay with SF-268 and in the assay with HCC 2998 was > 25 µM (inactive) each time.

Consider `CCOC(=O)O/C(=C\c1ccc(OC)cc1)c1c(OC(=O)OCC)n(C(=O)OCC)c2ccccc12`, for which the GI50 with MDA-N was 19.3 µM (inactive); in the assay with BT-549, 39.5 µM (inactive); in the assay with HCT-116, 33.9 µM (inactive); with M14, 23.6 µM (inactive); in the assay on COLO 205, > 100 µM (inactive); in the assay with Hs-578T, 22.3 µM (inactive). Also, the GI50 was 18.5 µM (inactive) in the assay with MDA-MB-231; 14.2 µM (inactive) in the assay with A498; 15.3 µM (inactive) in the assay with SR; 28.4 µM (inactive) with SF-295; 21.8 µM (inactive) with CCRF-CEM; 32.9 µM (inactive) in the assay on NCI-H226. In addition, the GI50 in the assay on RPMI-8226 was 1.83 µM (inactive); in the assay on SF-268 it was 47.1 µM (inactive).

In the case of `CCCC1CCC(=C2C(=O)CCC2=O)O1` (stereo unspecified), the GI50 with MDA-N, with BT-549, in the assay with HCT-116, in the assay with M14, in the assay on COLO 205 and in the assay with Hs-578T was > 100 µM (inactive) in each case. The GI50 with MDA-MB-231 is > 100 µM (inactive); in the assay on MOLT-4, 0.849 µM (active); with SR it was > 100 µM (inactive); in the assay with SF-295, > 100 µM (inactive); in the assay with CCRF-CEM, > 100 µM (inactive); with NCI-H226, > 100 µM (inactive). Further, the GI50 with RPMI-8226, in the assay on SF-268 and with HCC 2998 was > 100 µM (inactive) throughout.

`Cc1ccc(S(=O)(=O)NC(C(=O)O)C(C)C)cc1` (stereo unspecified): the GI50 in the assay on MDA-N, in the assay on BT-549, with HCT-116, with M14, with Hs-578T and in the assay on MDA-MB-231 was > 100 µM (inactive) in each case. In addition, the GI50 in the assay with A498, in the assay with MOLT-4, in the assay with SR, in the assay on SF-295, with CCRF-CEM and in the assay on NCI-H226 was > 100 µM (inactive) each time. Also, the GI50 in the assay with SF-268 and in the assay with HCC 2998 was > 100 µM (inactive) each time.

On to `CC1CCCCNC1=S` (stereo unspecified), for which the GI50 with MDA-N, in the assay with BT-549, in the assay on M14, in the assay on Hs-578T, with MDA-MB-231 and with A498 was > 10 µM (inactive) throughout. Besides, the GI50 in the assay with MOLT-4, in the assay on SR, in the assay on SF-295, in the assay on CCRF-CEM, with NCI-H226 and in the assay with SF-268 was > 10 µM (inactive) each time.

For the compound `CN(CCNC(=O)c1c[nH]c2c1Cc1ccccc1-2)CCNC(=O)c1c[nH]c2c1Cc1ccccc1-2`, the GI50 in the assay on MDA-N was 15.2 µM (inactive); with BT-549, 36.6 µM (inactive); in the assay with HCT-116 it was 36.1 µM (inactive); in the assay with M14 it was 30.8 µM (inactive); in the assay with COLO 205, 35 µM (inactive); in the assay with Hs-578T, 35.3 µM (inactive). Besides, the GI50 was 28.6 µM (inactive) in the assay with MDA-MB-231; 24.7 µM (inactive) with MOLT-4; 29.6 µM (inactive) in the assay on SR; 26.9 µM (inactive) in the assay on SF-295; 24.6 µM (inactive) with NCI-H226; 26.5 µM (inactive) in the assay with RPMI-8226. Besides, the figures for the GI50 with SF-268 and in the assay on HCC 2998 were 32 µM (inactive) and 52.6 µM (inactive), respectively.

Turning to `CCC(C)[C@@H](NC1=C(Cl)C(=O)c2c(O)ccc(O)c2C1=O)C(=O)OC` (stereo partly specified), the GI50 in the assay with MDA-N is 3.56 µM (inactive); in the assay with BT-549, 3.43 µM (inactive); in the assay on HCT-116 it was 2.4 µM (inactive); in the assay on M14, 2.31 µM (inactive); in the assay on COLO 205, 2.13 µM (inactive); in the assay on Hs-578T it was > 10 µM (inactive). The GI50 was 2.52 µM (inactive) in the assay on MDA-MB-231; 1.47 µM (inactive) in the assay with MOLT-4; 1.06 µM (active) with SR; 4.92 µM (inactive) in the assay with SF-295; 0.579 µM (active) with CCRF-CEM; 4.14 µM (inactive) in the assay on NCI-H226. Moreover, the GI50 was 2.28 µM (inactive) in the assay with RPMI-8226, 3.7 µM (inactive) in the assay on SF-268 and > 10 µM (inactive) with HCC 2998.

Take `C=C1CC2CCCC12C=O` (stereo unspecified): the GI50 in the assay on MDA-N, with BT-549, in the assay with HCT-116, in the assay on M14, in the assay with COLO 205 and in the assay on Hs-578T was > 10 µM (inactive) each time. In addition, the GI50 in the assay with MDA-MB-231, in the assay on MOLT-4, in the assay on SR, with SF-295, in the assay on CCRF-CEM and in the assay on RPMI-8226 was > 10 µM (inactive) in each case. Also, the GI50 in the assay with SF-268 and with HCC 2998 was > 10 µM (inactive) throughout.

Regarding `O=P(O)(Cc1ccccc1)c1ccccc1-c1ccccc1`, the GI50 with MDA-N was > 100 µM (inactive); in the assay with BT-549 it was > 100 µM (inactive); in the assay with HCT-116, > 100 µM (inactive); in the assay with M14, > 100 µM (inactive); with COLO 205 it was 57.8 µM (inactive); with Hs-578T it was > 100 µM (inactive). Moreover, the GI50 in the assay on MDA-MB-231, with MOLT-4, with SR, with SF-295, in the assay on CCRF-CEM and in the assay with NCI-H226 was > 100 µM (inactive) in each case. Further, the GI50 in the assay on SF-268 and with HCC 2998 was > 100 µM (inactive) in each case.

Turning to `O=C1c2ccccc2C(=O)c2c(Nc3cc4c5c(ccc6c7ccc8c9c(cc(Nc%10cccc%11c%10C(=O)c%10ccccc%10C%11=O)c(c3c56)c97)-c3ccccc3C8=O)C(=O)c3ccccc3-4)cccc21`, the GI50 in the assay with MDA-N is > 100 µM (inactive); in the assay with BT-549, 46.3 µM (inactive); in the assay with HCT-116, 88.9 µM (inactive); in the assay with M14, > 100 µM (inactive); in the assay with COLO 205, > 100 µM (inactive); in the assay with Hs-578T it was 18.1 µM (inactive). The GI50 in the assay with MDA-MB-231 was 31.6 µM (inactive); with A498 it was 26.1 µM (inactive); with MOLT-4, 37.8 µM (inactive); with SR it was 43.7 µM (inactive); in the assay with SF-295 it was 44 µM (inactive); in the assay on NCI-H226, > 100 µM (inactive). In addition, the GI50 in the assay on RPMI-8226 was > 100 µM (inactive); in the assay with SF-268 it was 18.8 µM (inactive).

For the compound `O=C1CS(=O)(=O)C(c2cccc(Oc3ccccc3)c2)N1c1ccccc1` (stereo unspecified), the GI50 in the assay with MDA-N is 17.9 µM (inactive); in the assay on BT-549, 20.1 µM (inactive); in the assay with HCT-116, 16.3 µM (inactive); with M14, 18.7 µM (inactive); in the assay with COLO 205, 20 µM (inactive); in the assay with Hs-578T, 28.4 µM (inactive). In addition, the GI50 is 19.9 µM (inactive) in the assay on MDA-MB-231; 17.9 µM (inactive) in the assay with A498; 20.4 µM (inactive) in the assay on MOLT-4; 19.9 µM (inactive) in the assay on SR; 30.5 µM (inactive) with SF-295; 34.8 µM (inactive) in the assay with CCRF-CEM. Moreover, the results for the GI50 with NCI-H226, in the assay with SF-268 and in the assay on HCC 2998 were 21.4 µM (inactive), 23.7 µM (inactive) and 16.9 µM (inactive), respectively.

For `CCOC(=O)C1=C(O)C2C3CC4C2C(O)=C(C(=O)OCC)C2C1C3C42` (stereo unspecified), the GI50 in the assay on MDA-N, in the assay with BT-549, in the assay with HCT-116, with M14, in the assay on COLO 205 and in the assay with Hs-578T was > 100 µM (inactive) each time. Moreover, the GI50 in the assay with MDA-MB-231 was > 100 µM (inactive); in the assay on A498, > 100 µM (inactive); in the assay on MOLT-4, > 100 µM (inactive); with SR it was 45.3 µM (inactive); with SF-295, > 100 µM (inactive); with CCRF-CEM it was 42.7 µM (inactive). Moreover, the GI50 with NCI-H226 was > 100 µM (inactive); with RPMI-8226 it was 84.5 µM (inactive); with SF-268, > 100 µM (inactive).

For `Oc1ccc2ccccc2c1Cc1c(O)ccc2ccccc12`, the GI50 in the assay with MDA-N is 11.6 µM (inactive); with BT-549, 16.9 µM (inactive); in the assay on HCT-116 it was 16.1 µM (inactive); with M14 it was 16.7 µM (inactive); in the assay on COLO 205, 17.9 µM (inactive); with Hs-578T it was 14.2 µM (inactive). In addition, the GI50 in the assay with MDA-MB-231 is 18.2 µM (inactive); in the assay with A498, 18.2 µM (inactive); in the assay on MOLT-4 it was 15 µM (inactive); in the assay with SF-295, 16.7 µM (inactive); in the assay with CCRF-CEM it was 19.3 µM (inactive); with NCI-H226, 20.9 µM (inactive). The GI50 was 16.4 µM (inactive) in the assay with RPMI-8226, 14 µM (inactive) in the assay with SF-268 and 17.4 µM (inactive) with HCC 2998.

`NCCN/C(=N\c1ccccc1)Nc1ccccc1`: the GI50 in the assay with MDA-N was > 100 µM (inactive); with BT-549, > 100 µM (inactive); with HCT-116 it was 94.2 µM (inactive); in the assay with M14, > 100 µM (inactive); in the assay with COLO 205, > 100 µM (inactive); in the assay on Hs-578T, > 100 µM (inactive). The GI50 with MDA-MB-231, with MOLT-4, with SR, with SF-295, in the assay with CCRF-CEM and in the assay with NCI-H226 was > 100 µM (inactive) each time. In addition, the GI50 with RPMI-8226, in the assay on SF-268 and in the assay on HCC 2998 was > 100 µM (inactive) in each case.
